Test results from article PMC11218721, “Receptor-Targeted Peptide Conjugates Based on Diphosphines Enable Preparation of ^99mTc and ^188Re Theranostic Agents for Prostate Cancer” (Journal of Nuclear Medicine, 2024).

Columns and labels:
DU145-PSMA+ tumors = assay: SPECT/CT imaging of mice bearing DU145-PSMA+ tumors; format: in vivo, SCID/beige mice; settings: radiotracer only, 2 h and 24 h after injection
Procedure: (§1) All animal experiments were ethically reviewed by an Animal Welfare and Ethical Review Board at either King’s College London or Barts Cancer Institute and were performed in accordance with the Animals (Scientific Procedures) Act 1986 U.K. Home Office regulations governing animal experimentation. Subcutaneous prostate cancer DU145-PSMA+ or DU145 xenografts were produced in SCID/beige mice (male, 7–12 wk old). Subcutaneous LNCaP prostate cancer xenografts were produced in athymic nude mice (Crl:NU(NCr)-Foxn1^nu, male, 6–7 wk old). SPECT/CT and biodistribution studies using ^99mTc and ^188Re radiotracers were performed once a tumor had reached an appropriate size (supplemental materials).
FIGURE 3. (A) Biodistribution (2 h after injection) of SCID/beige mice bearing DU145-PSMA+ prostate cancer tumors, administered either ^99mTc or ^188Re radiotracers intravenously. To assess specificity of radiotracer uptake, additional groups of mice were also coadministered radiotracer and PMPA (Supplemental Tables 3 and 4). (B) Whole-body SPECT/CT maximum-intensity projections of SCID/beige mice bearing either DU145-PSMA+ tumors or DU145 tumors, administered either [^99mTc]Tc-DP1-PSMAt or [^99mTc]Tc-DP2-PSMAt, 2 h after injection. To inhibit uptake in DU145-PSMA+ tumors, animals were also coadministered PMPA. […]

[1] = tested on: LNCaP prostate cancer cells, which natively express PSMA; assay: Radiotracer uptake in LNCaP prostate cancer cells; format: cell-based; settings: for cellular localization of radioactivity in LNCaP cells over time: 15, 30, 60 and 120 min, surface-bound vs internalized fraction; for uptake in LNCaP cells: 100 kBq radiotracer, 1 h incubation, percentage added radioactivity, mean ± SD, n = 3–4 biologic repeats in triplicate; for uptake in LNCaP cells / uptake in LNCaP cells with PMPA block: 37°C; for uptake in LNCaP cells with PMPA block: blocked with PMPA, 1 h
Procedure: (§2) Solutions containing radiotracer (100 kBq in 8–12 μL of phosphate-buffered saline, >95% radiochemical purity) were added to DU145-PSMA+ or LNCaP prostate cancer cells ([22]), and the cells were incubated at 37°C for 1 h. Nonspecific uptake was determined using non–PSMA-expressing cells (DU145, PC3) or by blocking PSMA-expressing cells (DU145-PSMA+, LNCaP) with 2-phosphonomethyl pentanedioic acid (PMPA). After incubation, the cells were washed and samples collected for radioactivity counting. Uptake and localization of ^99mTc radiotracers were measured over time (15, 30, 60, and 120 min) in DU145-PSMA+ or LNCaP cells (supplemental materials).
(§3) To assess the specificity of the new radiotracers for PSMA, [^99mTc]Tc-DP1-PSMAt and [^99mTc]Tc-DP2-PSMAt (100 kBq) were each incubated with DU145-PSMA+ prostate cancer cells (DU145 cells transfected to express PSMA receptor) ([22]). After 1 h of incubation, uptake of each radiotracer was quantified. […] In LNCaP cells, uptake of [^99mTc]Tc-DP1-PSMAt and [^99mTc]Tc-DP2-PSMAt measured 3.7 ± 1.2 %AR and 3.0 ± 0.8 %AR, respectively, whereas uptake of both radiotracers in PC3 cells measured less than 0.3 %AR.
(§4) FIGURE 2. (A) Uptake of radiotracers in PSMA-positive and PSMA-negative prostate cancer cells. (B) Time course uptake and localization of ^99mTc radiotracers in DU145-PSMA cells and LNCaP cells. Data are presented as mean ± SD; n = 3–4 biologic repeats performed in triplicate.

PC3 cells = assay: Radiotracer uptake in PC3 cells (non-PSMA-expressing); format: cell-based; settings: 100 kBq, 1 h, 37°C; cells do not express PSMA
Procedure: as §2, §3, §4

[2] = tested on: parental DU145 cells that do not express PSMA; assay: Radiotracer uptake in parental DU145 cells (non-PSMA-expressing); format: cell-based; settings: 100 kBq, 1 h, 37°C
Procedure: as §2, §3, §4

[3] = tested on: DU145-PSMA+ xenograft tumors; assay: Ex vivo biodistribution in SCID/beige mice bearing DU145-PSMA+ xenograft tumors; settings: 2 h after injection; for effect of PMPA coadministration on kidney retention (in words): SCID/beige mice bearing DU145-PSMA+ tumors; for mean difference in spleen retention, radiotracer only vs with PMPA / mean difference in tumor uptake, radiotracer only vs with PMPA: SCID/beige mice; for mean difference in tumor uptake, radiotracer only vs with PMPA: DU145-PSMA+ tumors
Procedure: as §1
The biodistributions of [^99mTc]Tc-DP1-PSMAt and [^99mTc]Tc-DP2-PSMAt were assessed in male SCID/beige mice bearing DU145-PSMA+ xenograft tumors (Fig. 3). Each mouse was administered either [^99mTc]Tc-DP1-PSMAt or [^99mTc]Tc-DP2-PSMAt and euthanized at 2 h after injection (n = 5), followed by organ harvesting for ex vivo radioactivity counting.
FIGURE 3. (A) Biodistribution (2 h after injection) of SCID/beige mice bearing DU145-PSMA+ prostate cancer tumors, administered either ^99mTc or ^188Re radiotracers intravenously. To assess specificity of radiotracer uptake, additional groups of mice were also coadministered radiotracer and PMPA (Supplemental Tables 3 and 4). (B) Whole-body SPECT/CT maximum-intensity projections of SCID/beige mice bearing either DU145-PSMA+ tumors or DU145 tumors, administered either [^99mTc]Tc-DP1-PSMAt or [^99mTc]Tc-DP2-PSMAt, 2 h after injection. To inhibit uptake in DU145-PSMA+ tumors, animals were also coadministered PMPA.
To assess the specificity of each radiotracer, separate groups of animals, also bearing DU145-PSMA+ tumors, were coadministered either [^99mTc]Tc-DP1-PSMAt and PMPA or [^99mTc]Tc-DP2-PSMAt and PMPA to inhibit PSMA-mediated uptake of radiotracer (n = 5). […] For [^99mTc]Tc-DP1-PSMAt, coadministration decreased uptake to 0.91 ± 0.29 %ID/g in tumors (compared with administration of [^99mTc]Tc-DP1-PSMAt only: mean difference of 17.12 %ID/g, P = 4 × 10^−4). For [^99mTc]Tc-DP2-PSMAt, coadministration decreased uptake to 0.76 ± 0.45 %ID/g in tumors (compared with administration of [^99mTc]Tc-DP2-PSMAt only: mean difference of 28.62 %ID/g, P = 5 × 10^−4).

[4] = tested on: DU145-PSMA+ prostate cancer cells (DU145 cells transfected to express PSMA receptor); assay: Radiotracer uptake in DU145-PSMA+ prostate cancer cells; format: cell-based; settings: for cellular localization of radioactivity in DU145-PSMA+ cells over time: 15, 30, 60 and 120 min, surface-bound vs internalized fraction; for uptake in DU145-PSMA+ cells: 100 kBq radiotracer, 1 h incubation, percentage added radioactivity, mean ± SD, n = 3–4 biologic repeats in triplicate; for uptake in DU145-PSMA+ cells / uptake in DU145-PSMA+ cells with PMPA block: 37°C; for uptake in DU145-PSMA+ cells with PMPA block: coincubated with PSMA inhibitor PMPA, 1 h
Procedure: as §2, §3, §4

| Structure (SMILES) | tumor delineation in SPECT/CT scans (DU145-PSMA+ tumors) | cellular localization of radioactivity in LNCaP cells over time [1] | uptake in LNCaP cells [1] [%AR] | uptake in LNCaP cells with PMPA block [1] | uptake in PC3 cells (PC3 cells) | uptake in parental DU145 cells [2] | effect of PMPA coadministration on kidney retention (in words) [3] | mean difference in spleen retention, radiotracer only vs with PMPA [3] [%ID/g] | mean difference in tumor uptake, radiotracer only vs with PMPA [3] [%ID/g] | cellular localization of radioactivity in DU145-PSMA+ cells over time [4] | uptake in DU145-PSMA+ cells [4] [%AR] | uptake in DU145-PSMA+ cells with PMPA block [4] |
| --- | --- | --- | --- | --- | --- | --- | --- | --- | --- | --- | --- | --- |
| Cc1ccc(P(/C(C(=O)O)=C(/C(=O)NCCOCCOCCOCCOCCC(=O)NCCCC[C@H](NC(=O)N[C@@H](CCC(=O)O)C(=O)O)C(=O)O)P(c2ccc(C)cc2)c2ccc(C)cc2)c2ccc(C)cc2)cc1 [[^99mTc]Tc-DP2-PSMAt] [metal not drawn] | tumors could be clearly delineated | most cell-associated radioactivity was found in the internalized cell fraction | 3.0 ± 0.8 | could also be blocked with PMPA | less than 0.3 %AR | negligible uptake | much less pronounced | 7.4 | 28.62 | most cell-associated radioactivity was found in the internalized cell fraction | 7.8 ± 1.3 | could be blocked with PMPA |
| O=C(O)CC[C@H](NC(=O)N[C@@H](CCCCNC(=O)CCOCCOCCOCCOCCNC(=O)/C(=C(\C(=O)O)P(c1ccccc1)c1ccccc1)P(c1ccccc1)c1ccccc1)C(=O)O)C(=O)O [[^99mTc]Tc-DP1-PSMAt] [metal not drawn] | tumors could be clearly delineated | most cell-associated radioactivity was found in the internalized cell fraction | 3.7 ± 1.2 | could also be blocked with PMPA | less than 0.3 %AR | negligible uptake | significantly decreased | 11.8 | 17.12 | most cell-associated radioactivity was found in the internalized cell fraction | 12.4 ± 2.8 | could be blocked with PMPA |
